Assay [1] relates to Molt-4 human acute lymphoblastic leukemia cells. Briefly: Molt-4 cell viability assay. The note with it: 10% human serum, 48 hours, CellTiter-Glo, read-out: Molt-4 Viability EC50 (nM, 10% HS). The class given is cell-based. The protocol:
In one exemplary set of conditions, Molt-4 (ATCC, Manassas, Va.) human acute lymphoblastic leukemia cells were plated 12,500 cells per well in 384-well tissue culture plates (Corning, Corning, N.Y.) in a total volume of 25 μL tissue culture medium supplemented with 10% human serum (Sigma-Aldrich, St. Louis, Mo.) and treated with a 3-fold serial dilution of the compounds of interest from 10 μM to 0.0005 μM. Each concentration was tested in duplicate at least 3 separate times. The number of viable cells following 48 hours of compound treatment was determined using the CellTiter-Glo® Luminescent Cell Viability Assay according to the manufacturer's recommendations (Promega Corp., Madison, Wis.). Compounds were tested in the presence of 10% HS.
Background: Cellular ATP, detected with luciferase, serves as a proxy for viable cell number.

For assay [2], the target named is Bcl-xL (Homo sapiens, UniProt Q07817). Nature of the assay: TR-FRET Bcl-xL binding assay (competition with probe F-Bak). The protocol:
For the assay, test compounds were serially diluted in DMSO starting at 50 μM (2× starting concentration; 10% DMSO) and 10 μL transferred into a 384-well plate. 10 μL of a protein/probe/antibody mix was then added to each well at final concentrations listed below:
The samples were then mixed on a shaker for 1 minute and incubated for an additional 2 hours at room temperature. For each assay plate, a probe/antibody and protein/antibody/probe mixture were included as a negative and a positive control, respectively. Fluorescence was measured on the Envision (Perkin Elmer) using a 340/35 nm excitation filter and 520/525 (F-Bak) and 495/510 nm (Tb-labeled anti-his antibody) emission filters. Dissociation constants (Ki) were determined using Wang's equation (Wang, 1995, FEBS Lett. 360:111-114). The TR-FRET assay can be performed in the presence of varying concentrations of human serum (HS) or fetal bovine serum (FBS). Compounds were tested both without HS and in the presence of 1% HS.

The mark [3] stands for this setting: in the presence of 1% human serum (HS), read-out: Bcl-xL Binding Ki (nM, 1% HS).
The mark [4] stands for this setting: without human serum, read-out: Bcl-xL Binding Ki.

What is called EC50 is the concentration at which the effect is half-maximal. What is called Ki is a measure of affinity in units of concentration, obtained from inhibition or displacement.

Like-named read-outs stand apart in the source and are kept apart here.

Chain of Bcl-xL (Q07817 whole entry): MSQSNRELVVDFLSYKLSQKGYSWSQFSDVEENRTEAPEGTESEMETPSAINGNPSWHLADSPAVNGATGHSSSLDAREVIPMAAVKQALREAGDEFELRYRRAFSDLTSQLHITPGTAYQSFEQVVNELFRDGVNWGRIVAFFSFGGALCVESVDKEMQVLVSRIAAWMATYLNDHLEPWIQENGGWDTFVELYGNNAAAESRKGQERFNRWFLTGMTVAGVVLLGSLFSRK

Turning to `CNCCOC12CC3(C)CC(C)(CC(Cn4ncc(-c5ccc(N6CCc7c(N)ccc(C(=O)Nc8nc9ccccc9s8)c7C6)nc5C(=O)O)c4C)(C3)C1)C2` [Compound W3.24, 6-[5-amino-8-(1,3-benzothiazol-2-ylcarbamoyl)-3,4-dihydroisoquinolin-2(1H)-yl]-3-[1-({3,5-dimethyl-7-[2-(methylamino)ethoxy]tricyclo[3.3.1.1^3,7]dec-1-yl}methyl)-5-methyl-1H-pyrazol-4-yl]pyridine-2-carboxylic acid], the EC50 in assay [1] was found to be 2210 nM. For the same molecule, the results for the Ki in assay [2] (setting [3]) and in assay [2] (setting [4]) were 8.14 nM and 0.794 nM, respectively.
Taken in the same sequence, the figures for `CNCC#Cc1cc2c(c(C(=O)Nc3nc4ccccc4s3)c1)CN(c1ccc(-c3cnn(CC45CC6(C)CC(C)(C4)CC(OCCOC)(C6)C5)c3C)c(C(=O)O)n1)CC2` [Compound W3.25, 6-[8-(1,3-benzothiazol-2-ylcarbamoyl)-6-[3-(methylamino)prop-1-yn-1-yl]-3,4-dihydroisoquinolin-2(1H)-yl]-3-(1-{[3-(2-methoxyethoxy)-5,7-dimethyltricyclo[3.3.1.1^3,7]dec-1-yl]methyl}-5-methyl-1H-pyrazol-4-yl)pyridine-2-carboxylic acid] were 424 nM, 0.9 nM and 0.138 nM.
The like results for `CNCCOC12CC3(C)CC(C)(CC(Cn4ncc(-c5ccc(-c6ccc7cncc(C(=O)Nc8nc9ccccc9s8)c7c6)nc5C(=O)O)c4C)(C3)C1)C2` [Compound W3.26, 6-[4-(1,3-benzothiazol-2-ylcarbamoyl)isoquinolin-6-yl]-3-[1-({3,5-dimethyl-7-[2-(methylamino)ethoxy]tricyclo[3.3.1.1^3,7]dec-1-yl}methyl)-5-methyl-1H-pyrazol-4-yl]pyridine-2-carboxylic acid] were, in that order, 4.3 nM, 0.083 nM and < 0.02 nM.
Turning to `CNCCOC12CC3(C)CC(C)(CC(Cn4ncc(-c5ccc(-c6cc7cccc(C(=O)Nc8nc9ccccc9s8)c7[nH]6)nc5C(=O)O)c4C)(C3)C1)C2` [Compound W3.27, 6-[7-(1,3-benzothiazol-2-ylcarbamoyl)-1H-indol-2-yl]-3-[1-({3,5-dimethyl-7-[2-(methylamino)ethoxy]tricyclo[3.3.1.1^3,7]dec-1-yl}methyl)-5-methyl-1H-pyrazol-4-yl]pyridine-2-carboxylic acid], the 50% effective concentration (EC50) in assay [1] was 3.95 nM. The Ki in assay [2] (setting [3]) turned out to be 0.12 nM.
In the case of `Cc1c(-c2ccc(-c3cc4cccc(C(=O)Nc5nc6ccccc6s5)c4[nH]3)nc2C(=O)O)cnn1CC12CC3(C)CC(C)(C1)CC(OCCN)(C3)C2` [Compound W3.28, 3-(1-{[3-(2-aminoethoxy)-5,7-dimethyltricyclo[3.3.1.1^3,7]dec-1-yl]methyl}-5-methyl-1H-pyrazol-4-yl)-6-[7-(1,3-benzothiazol-2-ylcarbamoyl)-1H-indol-2-yl]pyridine-2-carboxylic acid], in assay [1], the concentration for a half-maximal effect (EC50) came out at 8.38 nM. Moreover, the inhibitory constant (Ki) in assay [2] (setting [3]) is 0.17 nM; in assay [2] (setting [4]), < 0.01 nM.
As for `CNCCOC12CC3(C)CC(C)(CC(Cn4ncc(-c5ccc(-c6[nH]c7c(C(=O)Nc8nc9ccccc9s8)cccc7c6C)nc5C(=O)O)c4C)(C3)C1)C2` [Compound W3.29, 6-[7-(1,3-benzothiazol-2-ylcarbamoyl)-3-methyl-1H-indol-2-yl]-3-[1-({3,5-dimethyl-7-[2-(methylamino)ethoxy]tricyclo[3.3.1.1^3,7]dec-1-yl}methyl)-5-methyl-1H-pyrazol-4-yl]pyridine-2-carboxylic acid], in assay [1], the EC50 was 185 nM. Besides, the figures for the Ki in assay [2] (setting [3]) and in assay [2] (setting [4]) were 0.09 nM and < 0.01 nM, respectively.
The like results for `Cc1c(-c2ccc(N3CCc4cccc(C(=O)Nc5nc6ccccc6s5)c4C3)nc2C(=O)O)cnn1CC12CC3(C)CC(C)(C1)CC(OCCNC1CCN(S(C)(=O)=O)CC1)(C3)C2` [Compound W3.30, 6-[8-(1,3-benzothiazol-2-ylcarbamoyl)-3,4-dihydroisoquinolin-2(1H)-yl]-3-(1-{[3,5-dimethyl-7-(2-{[1-(methylsulfonyl)piperidin-4-yl]amino}ethoxy)tricyclo[3.3.1.1^3,7]dec-1-yl]methyl}-5-methyl-1H-pyrazol-4-yl)pyridine-2-carboxylic acid] were, in that order, 16.3 nM, 0.891 nM and 0.011 nM.
For `Cc1c(-c2ccc(N3CCc4cccc(C(=O)Nc5nc6ccccc6s5)c4C3)nc2C(=O)O)cnn1CC12CC3(C)CC(C)(C1)CC(OCCNC1CN(S(C)(=O)=O)C1)(C3)C2` [Compound W3.31, 6-[8-(1,3-benzothiazol-2-ylcarbamoyl)-3,4-dihydroisoquinolin-2(1H)-yl]-3-(1-{[3,5-dimethyl-7-(2-{[1-(methylsulfonyl)azetidin-3-yl]amino}ethoxy)tricyclo[3.3.1.1^3,7]dec-1-yl]methyl}-5-methyl-1H-pyrazol-4-yl)pyridine-2-carboxylic acid], the EC50 in assay [1] worked out at 14.4 nM. Also, the Ki in assay [2] (setting [3]) worked out at 0.684 nM; in assay [2] (setting [4]), 0.012 nM.
The like results for `Cc1c(-c2ccc(N3CCc4cccc(C(=O)Nc5nc6ccccc6s5)c4C3)nc2C(=O)O)cnn1CC12CC3(C)CC(C)(C1)CC(OCCNCCC(N)=O)(C3)C2` [Compound W3.32, 3-{1-[(3-{2-[(3-amino-3-oxopropyl)amino]ethoxy}-5,7-dimethyltricyclo[3.3.1.1^3,7]dec-1-yl)methyl]-5-methyl-1H-pyrazol-4-yl}-6-[8-(1,3-benzothiazol-2-ylcarbamoyl)-3,4-dihydroisoquinolin-2(1H)-yl]pyridine-2-carboxylic acid] were, in that order, 108 nM, 0.365 nM and < 0.01 nM.
Taken in the same sequence, the figures for `CNCCOC12CC3(C)CC(C)(CC(Cn4ncc(-c5ccc(-c6ccc7[nH]nc(C(=O)Nc8nc9ccccc9s8)c7c6)nc5C(=O)O)c4C)(C3)C1)C2` [Compound W3.33, 6-[3-(1,3-benzothiazol-2-ylcarbamoyl)-1H-indazol-5-yl]-3-[1-({3,5-dimethyl-7-[2-(methylamino)ethoxy]tricyclo[3.3.1.1^3,7]dec-1-yl}methyl)-5-methyl-1H-pyrazol-4-yl]pyridine-2-carboxylic acid] were 422 nM, 0.319 nM and 0.044 nM.
Taken in the same sequence, the figures for `CNCCOC12CC3(C)CC(C)(CC(Cn4ncc(-c5ccc(-c6ccc7[nH]cc(C(=O)Nc8nc9ccccc9s8)c7c6)nc5C(=O)O)c4C)(C3)C1)C2` [Compound W3.34, 6-[3-(1,3-benzothiazol-2-ylcarbamoyl)-1H-indol-5-yl]-3-[1-({3,5-dimethyl-7-[2-(methylamino)ethoxy]tricyclo[3.3.1.1^3,7]dec-1-yl}methyl)-5-methyl-1H-pyrazol-4-yl]pyridine-2-carboxylic acid] were 187 nM, 0.27 nM and 0.041 nM.
As for `CNCCOC12CC3(C)CC(C)(CC(Cn4ncc(-c5ccc(-c6cnc7[nH]cc(C(=O)Nc8nc9ccccc9s8)c7c6)nc5C(=O)O)c4C)(C3)C1)C2` [Compound W3.35, 6-[3-(1,3-benzothiazol-2-ylcarbamoyl)-1H-pyrrolo[2,3-b]pyridin-5-yl]-3-[1-({3,5-dimethyl-7-[2-(methylamino)ethoxy]tricyclo[3.3.1.1^3,7]dec-1-yl}methyl)-5-methyl-1H-pyrazol-4-yl]pyridine-2-carboxylic acid], in assay [1], the concentration giving a half-maximal response (EC50) stood at 658 nM. For the same molecule, the Ki in assay [2] (setting [3]) was 0.16 nM; in assay [2] (setting [4]) it was 0.022 nM.

(Values after patent US20160158377A1, “BCL-XL Inhibitory Compounds and Antibody Drug Conjugates Including the Same” (AbbVie Inc., priority 2014, published 2016).)
